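Grown in 96-well plates, cells were treated for 48 hours with each compound at five concentrations. Insufficient inhibition: endpoint recorded as highest concentration tested. GI50: concentration for 50% inhibition of growth.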 Active and inactive are the calls of the source. Cut-off read from the data, not from the text of the source: active = GI50 up to about 1.1 µM and inactive = higher.
Columns and labels:
Experiment in all cases: NCI anticancer screen, dose series, 48 h
[1] = system: NCI-H522
[2] = system: RPMI-8226
[3] = system: IGROV-1
[4] = system: SK-OV-3
[5] = system: M14
[6] = system: TK-10
[7] = system: SF-295
[8] = system: HOP-92
[9] = system: EKVX
[10] = system: K562
[11] = system: HT-29
[12] = system: SW-620
[13] = system: SF-268
[14] = system: ACHN
[15] = system: M19-MEL
[16] = system: T47D
[17] = system: MCF7
[18] = system: SNB-75
[19] = system: HL-60
[20] = system: DU-145

Structure (SMILES) | GI50 [1] | GI50 [2] | GI50 [3] | GI50 [4] | GI50 [5] | GI50 [6] | GI50 [7] | GI50 [8] | GI50 [9] | GI50 [10] | GI50 [11] | GI50 [12] | GI50 [13] | GI50 [14] | GI50 [15] | GI50 [16] | GI50 [17] | GI50 [18] | GI50 [19] | GI50 [20]
Cn1c(CBr)nc2c1C(=O)c1nc(CBr)[nH]c(=O)c1C2=O | > 100 µM (inactive) | 53 µM (inactive) | > 100 µM (inactive) | > 100 µM (inactive) | > 100 µM (inactive) | > 100 µM (inactive) | > 100 µM (inactive) | 61.4 µM (inactive) | > 100 µM (inactive) | > 100 µM (inactive) | > 100 µM (inactive) | > 100 µM (inactive) | > 100 µM (inactive) | > 100 µM (inactive) | 26.8 µM (inactive) | – | – | – | – | –
N=C(N)N/N=C/c1c(-c2ccccc2[N+](=O)[O-])nc2sccn12 | 17 µM (inactive) | 19.5 µM (inactive) | 37.6 µM (inactive) | 42.9 µM (inactive) | 16.7 µM (inactive) | 23.6 µM (inactive) | 22 µM (inactive) | 27.1 µM (inactive) | 43.8 µM (inactive) | 14.1 µM (inactive) | 27.7 µM (inactive) | 18.4 µM (inactive) | 28.8 µM (inactive) | 39.3 µM (inactive) | – | 18.3 µM (inactive) | 19.1 µM (inactive) | 11.9 µM (inactive) | 16.6 µM (inactive) | 48.2 µM (inactive)
Cc1cccc(C)c1NC(=O)C(=O)C(c1ccccc1Cl)S(=O)(=O)Cc1ccccc1Cl (stereo not drawn) | > 100 µM (inactive) | > 100 µM (inactive) | > 62.4 µM (inactive) | > 29.4 µM (inactive) | > 100 µM (inactive) | > 61.2 µM (inactive) | 23.7 µM (inactive) | 18.2 µM (inactive) | > 100 µM (inactive) | > 100 µM (inactive) | > 100 µM (inactive) | > 100 µM (inactive) | 22.9 µM (inactive) | 53.3 µM (inactive) | – | > 100 µM (inactive) | > 100 µM (inactive) | 11.2 µM (inactive) | 0.236 µM (active) | > 100 µM (inactive)
CCCCCCCCCCCCCCCCOC[C@H](COC(c1ccccc1)(c1ccccc1)c1ccccc1)O[PH](=S)OC (stereo partly drawn) | > 100 µM (inactive) | > 100 µM (inactive) | > 100 µM (inactive) | > 100 µM (inactive) | > 100 µM (inactive) | > 100 µM (inactive) | > 100 µM (inactive) | > 100 µM (inactive) | > 100 µM (inactive) | > 100 µM (inactive) | > 100 µM (inactive) | > 100 µM (inactive) | > 100 µM (inactive) | > 100 µM (inactive) | – | > 100 µM (inactive) | > 100 µM (inactive) | > 100 µM (inactive) | > 100 µM (inactive) | > 100 µM (inactive)
c1ccc(CCN2CCN=C2Cc2ccccc2)cc1 | > 100 µM (inactive) | 29 µM (inactive) | > 100 µM (inactive) | > 100 µM (inactive) | 31.1 µM (inactive) | > 100 µM (inactive) | > 100 µM (inactive) | 28.6 µM (inactive) | > 100 µM (inactive) | 29.2 µM (inactive) | 67.1 µM (inactive) | > 100 µM (inactive) | > 100 µM (inactive) | > 100 µM (inactive) | – | > 100 µM (inactive) | > 100 µM (inactive) | > 100 µM (inactive) | > 100 µM (inactive) | > 100 µM (inactive)
N#Cc1nc(C2CCC2)oc1N | > 100 µM (inactive) | > 100 µM (inactive) | > 100 µM (inactive) | > 100 µM (inactive) | > 100 µM (inactive) | > 100 µM (inactive) | > 100 µM (inactive) | > 100 µM (inactive) | > 100 µM (inactive) | > 100 µM (inactive) | > 100 µM (inactive) | > 100 µM (inactive) | > 100 µM (inactive) | > 100 µM (inactive) | – | > 100 µM (inactive) | > 100 µM (inactive) | > 100 µM (inactive) | 84.9 µM (inactive) | > 100 µM (inactive)
C#CCN(N=O)C(=O)NCCCC(NC(C)=O)C(=O)NCc1ccccc1 (stereo not drawn) | 29.9 µM (inactive) | 15.9 µM (inactive) | > 100 µM (inactive) | > 100 µM (inactive) | > 100 µM (inactive) | > 100 µM (inactive) | > 100 µM (inactive) | > 100 µM (inactive) | > 100 µM (inactive) | 43.3 µM (inactive) | > 100 µM (inactive) | 92.5 µM (inactive) | > 100 µM (inactive) | 56.2 µM (inactive) | > 100 µM (inactive) | – | – | 96.8 µM (inactive) | – | –
COC1(C)OC[C@@]2(C)OC(C)C1(C)C2O[Si](C(C)C)(C(C)C)C(C)C (stereo partly drawn) | 27.9 µM (inactive) | 28.2 µM (inactive) | 28.7 µM (inactive) | 24.4 µM (inactive) | 37.6 µM (inactive) | 25.4 µM (inactive) | 19.9 µM (inactive) | 24.9 µM (inactive) | 24.9 µM (inactive) | 26.5 µM (inactive) | 28.7 µM (inactive) | 33.5 µM (inactive) | 31.8 µM (inactive) | 25.2 µM (inactive) | – | 27.6 µM (inactive) | 18.4 µM (inactive) | 26.9 µM (inactive) | 17.5 µM (inactive) | 38.7 µM (inactive)
C/C=C1/CN2CCC34C5=CC(=O)C(c6cc7c(cc6OC)N(C)C6=C(C(=O)OC)CC8(CC)CCCN9CCC67C98)=CC5=NC23CCC1C4C(=O)OC (stereo not drawn) | 11.1 µM (inactive) | 4.04 µM (inactive) | 17.9 µM (inactive) | 16.7 µM (inactive) | 12.3 µM (inactive) | 17 µM (inactive) | 17.7 µM (inactive) | 7.85 µM (inactive) | 13.8 µM (inactive) | 3.48 µM (inactive) | 14.2 µM (inactive) | 8.73 µM (inactive) | 18 µM (inactive) | 15.6 µM (inactive) | – | 15.1 µM (inactive) | 9.14 µM (inactive) | 8.11 µM (inactive) | 1.93 µM (inactive) | 18.7 µM (inactive)
O=[N+]([O-])C[C@@]12O[C@]3(O)C4C5CC(C6C5C3C61)C42 (stereo partly drawn) | > 100 µM (inactive) | > 100 µM (inactive) | > 100 µM (inactive) | > 100 µM (inactive) | > 100 µM (inactive) | > 100 µM (inactive) | > 100 µM (inactive) | > 100 µM (inactive) | > 100 µM (inactive) | > 100 µM (inactive) | > 100 µM (inactive) | > 100 µM (inactive) | > 100 µM (inactive) | > 100 µM (inactive) | – | > 100 µM (inactive) | > 100 µM (inactive) | > 100 µM (inactive) | > 100 µM (inactive) | > 100 µM (inactive)
CS/C(N)=N/c1cccc2ccccc12 | > 10 µM (inactive) | > 10 µM (inactive) | > 10 µM (inactive) | > 10 µM (inactive) | > 10 µM (inactive) | > 10 µM (inactive) | > 10 µM (inactive) | > 10 µM (inactive) | > 10 µM (inactive) | > 10 µM (inactive) | > 10 µM (inactive) | > 10 µM (inactive) | > 10 µM (inactive) | > 10 µM (inactive) | – | > 10 µM (inactive) | > 10 µM (inactive) | > 10 µM (inactive) | > 10 µM (inactive) | > 10 µM (inactive)
COc1ccc(C(=O)c2nc3ccccc3nc2N2CCN(c3ccccc3)CC2)cc1OC | > 100 µM (inactive) | > 100 µM (inactive) | > 100 µM (inactive) | > 100 µM (inactive) | > 100 µM (inactive) | > 100 µM (inactive) | > 100 µM (inactive) | > 100 µM (inactive) | > 100 µM (inactive) | > 100 µM (inactive) | > 100 µM (inactive) | > 100 µM (inactive) | > 100 µM (inactive) | > 100 µM (inactive) | – | > 100 µM (inactive) | 39.1 µM (inactive) | > 100 µM (inactive) | > 100 µM (inactive) | > 100 µM (inactive)
C/C(=N\O)c1ccc(Nc2c3ccccc3nc3occc23)cc1 | 0.103 µM (active) | 0.207 µM (active) | 0.231 µM (active) | 0.421 µM (active) | 0.236 µM (active) | 1.17 µM (inactive) | 0.151 µM (active) | 12.2 µM (inactive) | 5.82 µM (inactive) | 0.174 µM (active) | 0.199 µM (active) | 0.21 µM (active) | 0.514 µM (active) | 0.302 µM (active) | – | 0.553 µM (active) | 0.18 µM (active) | 0.662 µM (active) | 0.154 µM (active) | 1.05 µM (active)
CCCCc1ccc(Nc2nc(Cl)c3ncn(COCCOC(C)=O)c3n2)cc1 | 13.6 µM (inactive) | 18.2 µM (inactive) | 15.7 µM (inactive) | 19.6 µM (inactive) | 18 µM (inactive) | 20.3 µM (inactive) | 17.4 µM (inactive) | 2.06 µM (inactive) | 6.19 µM (inactive) | 6.04 µM (inactive) | 17.3 µM (inactive) | 21.1 µM (inactive) | 19.4 µM (inactive) | 17.5 µM (inactive) | – | 22.8 µM (inactive) | 27.4 µM (inactive) | 24.5 µM (inactive) | 20.9 µM (inactive) | 16 µM (inactive)
O=C1C=C2CO[C@H]3OC[C@H](O)[C@@H]1[C@@H]23 | 16.5 µM (inactive) | 20.4 µM (inactive) | > 100 µM (inactive) | > 100 µM (inactive) | > 100 µM (inactive) | 59.3 µM (inactive) | > 100 µM (inactive) | 46.3 µM (inactive) | > 100 µM (inactive) | 26.9 µM (inactive) | > 100 µM (inactive) | 30.1 µM (inactive) | 36.2 µM (inactive) | > 100 µM (inactive) | – | 25.5 µM (inactive) | 43.2 µM (inactive) | 43 µM (inactive) | 23.6 µM (inactive) | > 100 µM (inactive)
